Tests used:
clinical = conditions: human, in vivo; for Cmax: Mean
humans = assay: Clinical experience with sublingual apomorphine tablets in humans (efficacy, side effects)
[1] = humans, 2 to 4 mg sublingual tablets, clinical experience

`CN1CCc2cccc3c2[C@H]1Cc1ccc(O)c(O)c1-3` [Apomorphine, (R)-5,6,6a,7-tetrahydro-6-methyl-4H-dibenzo-[de,g]quinoline-10,11-diol] showed an AUC(0-inf) (clinical; sc, 1 mg) of 3.39 ng·h/mL, a Tmax (clinical; sc, 1 mg) of 20.4 min and a Cmax (clinical; sc, 1 mg) of 3.22 ng/mL. For the same molecule, the AUC(0-inf) (clinical; male, 2 mg) was 1.23 ng·h/mL, the Tmax (clinical; male, 2 mg) was 44.4 min and the “cmax, Mean” value (clinical; male, 2 mg) was 0.70 ng/mL. It also gave a Cmax (clinical; male, 2 mg) of ~0.7 ng/mL, an AUC(0-inf) (clinical; male, 4 mg) of 2.37 ng·h/mL and a Tmax (clinical; male, 4 mg) of 43.2 min. For the same molecule, the “cmax, Mean” value (clinical; male, 4 mg) was 1.25 ng/mL, the Cmax (clinical; male, 4 mg) was ~1.25 ng/mL and the AUC(0-inf) (clinical; male, 5 mg) was 2.92 ng·h/mL. For the same molecule, the Tmax (clinical; male, 5 mg) was 40.8 min, the “cmax, Mean” value (clinical; male, 5 mg) was 1.70 ng/mL and the Cmax (clinical; male, 5 mg) was ~1.7 ng/mL. For the same molecule, the AUC(0-inf) (clinical; male, 6 mg) was 3.6 ng·h/mL, the Tmax (clinical; male, 6 mg) was 39.6 min and the “cmax, Mean” value (clinical; male, 6 mg) was 1.91 ng/mL. For the same molecule, the Cmax (clinical; male, 6 mg) was ~1.91 ng/mL, the incidence of emesis (humans; [1]) was 2% and the incidence of nausea (humans; [1]) was “about 13%”. For the same molecule, the tolerability in humans (humans; up to 8 mg of apomorphine tablets) was “well tolerated”, the side-effects in humans (humans; up to a 6 mg dose via sublingual tablet) was “minimal side-effects” and the efficacy in humans (humans; up to a 6 mg dose via sublingual tablet, sexual dysfunction) was “good efficacy”.

— patent publication US20020006933A1 (TAP Holdings, Inc., priority 2000, published 2002)
